The test system of one data set is HMG‐CoA reductase. The following applies: cited from earlier work.
Another data set is described as follows: Safety monitoring. The data set is classed as in vivo, human (healthy subjects). The following applies: for Tolerability: doses administered alone or in combination, healthy subjects.
For data set [1] the following is noted: oral contraceptives, CYP3A substrates; cited from earlier work.
Another data set relates to CYP3A. The conditions noted are these: upadacitinib 30 mg once daily, healthy subjects; cited from earlier work.
Data set [2] is classed as in vivo, human (healthy subjects).
For data set [3] the following is noted: cited from earlier work.
In data set [4] the test system is organic anion transporting polypeptide (OATP) 1B1. The conditions noted are these: in vitro assessments, at clinically relevant concentrations; cited from earlier work.
Data set [5] is classed as in vivo, human (healthy subjects). The following applies: for CL/F: N = 12, mean ± SD.
The next data set relates to P‐glycoprotein. The conditions noted are these: in vitro assessments; cited from earlier work.
The test system of another data set is OATP1B. Description: In vivo transporter inhibition by upadacitinib inferred from statin exposures. Also noted: species or system human (healthy subjects). The following applies: upadacitinib 30 mg once daily; no increase in rosuvastatin or atorvastatin exposures.
The test system of a further data set is CYP2C19. The following applies: following upadacitinib dosing in the cocktail drug interaction study; cited from earlier work.
The subject of another data set is CYP1A2. The following applies: following upadacitinib dosing in the cocktail drug interaction study; cited from earlier work.
The format of data set [6] is in vivo, human (healthy subjects). The following applies: for CL/F / Cmax: N = 24, mean ± SD.
The test system of a further data set is CYP2D6. The conditions noted are these: following upadacitinib dosing in the cocktail drug interaction study; cited from earlier work.
For data set [7], the system named is BCRP. The following applies: in vitro assessments, at clinically relevant concentrations; cited from earlier work.
The conditions of data set [8]: cited from earlier work. The source holds these as a separate data set.
Data set [9] addresses T1, BCRP (Homo sapiens, UniProt Q9UNQ0).
T1 sequence (Q9UNQ0 1-655): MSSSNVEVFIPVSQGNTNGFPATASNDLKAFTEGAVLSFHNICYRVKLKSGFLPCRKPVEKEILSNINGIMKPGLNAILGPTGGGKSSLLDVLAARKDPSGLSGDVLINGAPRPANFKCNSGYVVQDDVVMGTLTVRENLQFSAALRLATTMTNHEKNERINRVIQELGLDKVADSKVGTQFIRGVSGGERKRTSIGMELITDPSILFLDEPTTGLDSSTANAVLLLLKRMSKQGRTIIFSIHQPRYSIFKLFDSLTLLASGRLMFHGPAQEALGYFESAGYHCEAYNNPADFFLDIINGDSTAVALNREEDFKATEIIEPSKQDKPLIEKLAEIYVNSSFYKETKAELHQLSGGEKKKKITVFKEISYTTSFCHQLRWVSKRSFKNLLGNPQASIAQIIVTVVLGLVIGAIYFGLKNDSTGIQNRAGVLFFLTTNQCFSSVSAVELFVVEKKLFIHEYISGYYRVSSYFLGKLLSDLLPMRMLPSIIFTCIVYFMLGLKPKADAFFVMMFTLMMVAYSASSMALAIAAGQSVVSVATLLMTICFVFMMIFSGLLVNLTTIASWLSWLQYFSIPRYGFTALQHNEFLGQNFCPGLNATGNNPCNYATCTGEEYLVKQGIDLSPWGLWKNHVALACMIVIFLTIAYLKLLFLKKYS
Description: In vivo transporter inhibition by upadacitinib inferred from statin exposures. The arrangement: species or system human (healthy subjects). The conditions noted are these: upadacitinib 30 mg once daily; no increase in rosuvastatin or atorvastatin exposures.

Data set [10] relates to breast cancer resistance protein (BCRP). The following applies: in vitro assessments; cited from earlier work.
Another data set relates to CYP2C9. The following applies: following upadacitinib dosing in the cocktail drug interaction study; cited from earlier work.
[11] abbreviates: atorvastatin 10 mg + upadacitinib 30 mg once daily, period 2 day 7, N = 24.
The mark [12] stands for this setting: atorvastatin 10 mg alone, period 1 day 1, N = 24.
[13] abbreviates: atorvastatin 10 mg alone, period 1 day 1, N = 24, mean ± SD.
[14] abbreviates: rosuvastatin 5 mg, upadacitinib 30 mg once daily.
[15] abbreviates: upadacitinib 30 mg once daily at steady state.
Where [16] appears, read: part 2, period 2 day 6, upadacitinib 30 mg once daily alone.
Where [17] appears, read: part 2, period 2 day 7, upadacitinib 30 mg once daily + atorvastatin 10 mg single dose.

“Also recorded” adds a separate entry of the source. Where two headings read alike, the source gives them in different places.

Consider `CC(C)c1nc(NS(C)(=O)=O)nc(-c2ccc(F)cc2)c1/C=C/[C@@H](O)C[C@@H](O)CC(=O)O` [N‐desmethyl rosuvastatin], for which the “Inhibitory activity of HMG‐CoA reductase compared to rosuvastatin” value in the data set on HMG‐CoA reductase is “minimal inhibitory activity”.
As to `CC(C)c1c(C(=O)Nc2ccccc2)c(-c2ccccc2)c(-c2ccc(F)cc2)n1CC[C@@H](O)C[C@@H](O)CC(=O)O` [atorvastatin], the Tolerability result in “Safety monitoring” is on record as “generally well tolerated”.
As for `C#C[C@]1(O)CC[C@H]2[C@@H]3CCc4cc(O)ccc4[C@H]3CC[C@@]21C` [ethinylestradiol], the “Effect of upadacitinib on plasma exposures” value in data set [1] is reported as “lack of effect; also recorded: no effect”.
For the compound `C#C[C@]1(O)CC[C@H]2[C@@H]3CCC4=CC(=O)CC[C@@H]4[C@H]3CC[C@@]21CC` [levonorgestrel], in data set [1], the “Effect of upadacitinib on plasma exposures” value was “lack of effect; also recorded: no effect”.
Take `Cc1ncc2n1-c1ccc(Cl)cc1C(c1ccccc1F)=NC2` [midazolam]: in the data set on CYP3A, the “Decrease in AUC when administered with upadacitinib relative to alone” value is 26% and the “Decrease in Cmax when administered with upadacitinib relative to alone” value was 26%.
As usually defined, the Cmax is the peak of the concentration-time curve. Consider `CC(C)c1c(C(=O)Nc2ccccc2O)c(-c2ccccc2)c(-c2ccc(F)cc2)n1CC[C@@H](O)C[C@@H](O)CC(=O)O` [ortho‐hydroxyatorvastatin], for which, under setting [11], the “t1/2 (arithmetic mean ± standard deviation)” value is reported as 10.7 ± 2.76 h and the “t1/2 (harmonic mean ± pseudo-standard deviation)” value amounted to 10.0 ± 2.60 h. Further, under setting [12], the “t1/2 (arithmetic mean ± standard deviation)” value stood at 12.9 ± 5.76 h and the “t1/2 (harmonic mean ± pseudo-standard deviation)” value worked out at 11.1 ± 3.92 h. Moreover, under setting [13], the “Ortho‐hydroxyatorvastatin to atorvastatin AUCinf ratio” value was 1.39 ± 0.499 and the “Ortho‐hydroxyatorvastatin to atorvastatin AUCt ratio” value is reported as 1.33 ± 0.492. The tmax (atorvastatin 10 mg alone, period 1 day 1, N = 24, median (minimum-maximum)) was 4.0 (2.0‐8.0) h. For the setting “atorvastatin 10 mg single dose + upadacitinib 30 mg once daily, period 2 day 7, N = 24, mean ± SD”, the Cmax is reported as 1.54 ± 0.610 ng/mL. Under “atorvastatin 10 mg single oral dose alone, period 1 day 1, N = 24, mean ± SD”, this compound came in with a Cmax of 1.58 ± 0.716 ng/mL.
Usually AUC(0-inf) stands for total exposure, with the tail of the curve extrapolated. High values mean more exposure, low ones less exposure. By AUC(0-t) is commonly meant the area under the concentration-time curve up to a stated or last time point. Read a high AUC(0-t) as high exposure. Broadly, the half-life is how long it takes for the measured level to halve. Read a low half-life as fast loss. In data set [2] (human, plasma, oral, 5 mg), `CC(C)c1nc(N(C)S(C)(=O)=O)nc(-c2ccc(F)cc2)c1/C=C/[C@@H](O)C[C@@H](O)CC(=O)O` [rosuvastatin] had an AUC(0-inf) of 22.8 ± 6.69 ng·h/mL and an AUC(0-t) of 17.5 ± 6.53 ng·h/mL. The half-life in data set [2] (human, plasma, oral, 5 mg, t1/2 (arithmetic mean ± standard deviation), rosuvastatin 5 mg alone, period 1 day 1, N = 12) is 1650 min. In data set [2] (human, plasma, po, 5 mg), this compound had a Cmax of 1.91 ± 0.699 ng/mL. Moreover, the “Cmax central value ratio (90%CI)” value in [2] (rosuvastatin 5 mg with upadacitinib 30 mg once daily versus rosuvastatin alone) is 0.77. Also, in data set [2] (setting [14]), the “AUCinf lower when administered with upadacitinib relative to alone” value worked out at 33% and the “Cmax lower when administered with upadacitinib relative to alone” value was determined as 23%. Besides, the Tolerability result in “Safety monitoring” is “generally well tolerated”. For the same compound, the “Intrasubject variability in plasma exposures” value in data set [3] is listed as “≈ 25%”.
For orientation: AUC means concentration integrated over time. As a reminder, the CL/F is clearance divided by bioavailability, as obtained after extravascular dosing. Take `CC[C@@H]1CN(C(=O)NCC(F)(F)F)C[C@@H]1c1cnc2cnc3[nH]ccc3n12` [upadacitinib]: the “Inhibition of OATP1B1” value in data set [4] was “not expected to inhibit”. Where the note is “upadacitinib 30 mg once daily, atorvastatin 10 mg”, the “Effect of upadacitinib on the pharmacokinetics of atorvastatin” value was “no clinically relevant effect”. Further, the AUC in data set [5] (human, plasma, oral, 30 mg) was 585 ± 153 ng·h/mL; in data set [6] (human, plasma, oral, 30 mg) it was 547 ± 112 ng·h/mL. The Cmax in data set [5] (human, plasma, oral, 30 mg) stood at 73 ± 23.6 ng/mL; in [6] (setting [16]), 76.5 ± 16.1 ng/mL; in data set [6] (setting [17]) it was 73.2 ± 17.1 ng/mL. The concentration at 24 h in [5] (human, plasma, oral, 30 mg) came out at 5.17 ± 1.56 ng/mL; in [6] (human, plasma, oral, 30 mg), 4.3 ± 1.74 ng/mL. The CL/F was 54.6 ± 14.4 L/h in data set [5] (part 1, period 2 day 6, upadacitinib 30 mg once daily alone); 55.9 ± 14.7 L/h in data set [5] (part 1, period 2 day 7, upadacitinib 30 mg once daily + rosuvastatin 5 mg single dose); 57.2 ± 12.3 L/h in data set [6] (setting [16]); 58.4 ± 11.7 L/h in data set [6] (setting [17]). For the same compound, the “Effect of single 5‐mg dose of rosuvastatin on upadacitinib Cmax or AUC” value in data set [5] (setting [15]) is recorded as “no relevant effect”. Also, in the data set on P‐glycoprotein, the “Substrate for P‐glycoprotein” value is on record as “is a substrate”. The “Effect of upadacitinib on the pharmacokinetics of rosuvastatin” value in data set [2] (upadacitinib 30 mg once daily, rosuvastatin 5 mg) is “no clinically relevant effect”. Besides, the Tolerability entry in “Safety monitoring” was “generally well tolerated”. The “Patients reporting constipation (grade 1)” value in “Safety monitoring” (during treatment with rosuvastatin and upadacitinib, N = 12) turned out to be 1 patient. For the same compound, the New safety findings entry in the data set “Safety monitoring” (upadacitinib alone or with the statins) is “no new safety findings”. Further, the “Inhibition of OATP1B in vivo” value with OATP1B was “lack of inhibition”. For the same compound, the “Effect on CYP2C19 activity” value with CYP2C19 is reported as “No relevant effects”. For the same compound, the “Effect on CYP1A2 activity” value with CYP1A2 is “No relevant effects”. In data set [6] (setting [15]), the “Effect of single 10‐mg dose of atorvastatin on upadacitinib Cmax or AUC” value was “no relevant effect”. In addition, in the data set with CYP2D6, the “Effect on CYP2D6 activity” value is “No relevant effects”. Moreover, the “Inhibition of BCRP” value with BCRP [7] is “not expected to inhibit”. Also, the “Time to steady state” value in [8] (once‐daily dosing of the extended‐release formulation) is given as no more than 4 days. In data set [8] (repeated once‐daily dosing of the extended‐release formulation), the Accumulation in plasma result is “no significant accumulation”. Besides, the “Inhibition of BCRP in vivo” value on BCRP [9] is listed as “lack of inhibition”. In addition, in data set [10], the “Substrate for BCRP” value is recorded as “is a substrate”. For the same compound, in the data set on CYP2C9, the “Effect on CYP2C9 activity” value is “No relevant effects”.

(Values after paper PMC8596765 (Clinical Pharmacology in Drug Development, 2021).)
